Measurements from paper PMC6198068, “Discovery of a Novel Nav1.7 Inhibitor From Cyriopagopus albostriatus Venom With Potent Analgesic Efficacy” (Frontiers in Pharmacology, 2018).
Where a SMILES comes first, the peptide text is derived from it. Bridges are numbered along the chain shown (N, C = ends).

Tests used:
Type in all cases: cell-based
[1] = molecular target: T1, Nav1.2 (Homo sapiens, UniProt Q99250); test: Whole-cell patch-clamp, Nav1.2 in HEK293T cells; details: mean ± SEM
T1 construct: expressed in transfected cells; host or cells: HEK293T
T1 sequence (Q99250 whole entry): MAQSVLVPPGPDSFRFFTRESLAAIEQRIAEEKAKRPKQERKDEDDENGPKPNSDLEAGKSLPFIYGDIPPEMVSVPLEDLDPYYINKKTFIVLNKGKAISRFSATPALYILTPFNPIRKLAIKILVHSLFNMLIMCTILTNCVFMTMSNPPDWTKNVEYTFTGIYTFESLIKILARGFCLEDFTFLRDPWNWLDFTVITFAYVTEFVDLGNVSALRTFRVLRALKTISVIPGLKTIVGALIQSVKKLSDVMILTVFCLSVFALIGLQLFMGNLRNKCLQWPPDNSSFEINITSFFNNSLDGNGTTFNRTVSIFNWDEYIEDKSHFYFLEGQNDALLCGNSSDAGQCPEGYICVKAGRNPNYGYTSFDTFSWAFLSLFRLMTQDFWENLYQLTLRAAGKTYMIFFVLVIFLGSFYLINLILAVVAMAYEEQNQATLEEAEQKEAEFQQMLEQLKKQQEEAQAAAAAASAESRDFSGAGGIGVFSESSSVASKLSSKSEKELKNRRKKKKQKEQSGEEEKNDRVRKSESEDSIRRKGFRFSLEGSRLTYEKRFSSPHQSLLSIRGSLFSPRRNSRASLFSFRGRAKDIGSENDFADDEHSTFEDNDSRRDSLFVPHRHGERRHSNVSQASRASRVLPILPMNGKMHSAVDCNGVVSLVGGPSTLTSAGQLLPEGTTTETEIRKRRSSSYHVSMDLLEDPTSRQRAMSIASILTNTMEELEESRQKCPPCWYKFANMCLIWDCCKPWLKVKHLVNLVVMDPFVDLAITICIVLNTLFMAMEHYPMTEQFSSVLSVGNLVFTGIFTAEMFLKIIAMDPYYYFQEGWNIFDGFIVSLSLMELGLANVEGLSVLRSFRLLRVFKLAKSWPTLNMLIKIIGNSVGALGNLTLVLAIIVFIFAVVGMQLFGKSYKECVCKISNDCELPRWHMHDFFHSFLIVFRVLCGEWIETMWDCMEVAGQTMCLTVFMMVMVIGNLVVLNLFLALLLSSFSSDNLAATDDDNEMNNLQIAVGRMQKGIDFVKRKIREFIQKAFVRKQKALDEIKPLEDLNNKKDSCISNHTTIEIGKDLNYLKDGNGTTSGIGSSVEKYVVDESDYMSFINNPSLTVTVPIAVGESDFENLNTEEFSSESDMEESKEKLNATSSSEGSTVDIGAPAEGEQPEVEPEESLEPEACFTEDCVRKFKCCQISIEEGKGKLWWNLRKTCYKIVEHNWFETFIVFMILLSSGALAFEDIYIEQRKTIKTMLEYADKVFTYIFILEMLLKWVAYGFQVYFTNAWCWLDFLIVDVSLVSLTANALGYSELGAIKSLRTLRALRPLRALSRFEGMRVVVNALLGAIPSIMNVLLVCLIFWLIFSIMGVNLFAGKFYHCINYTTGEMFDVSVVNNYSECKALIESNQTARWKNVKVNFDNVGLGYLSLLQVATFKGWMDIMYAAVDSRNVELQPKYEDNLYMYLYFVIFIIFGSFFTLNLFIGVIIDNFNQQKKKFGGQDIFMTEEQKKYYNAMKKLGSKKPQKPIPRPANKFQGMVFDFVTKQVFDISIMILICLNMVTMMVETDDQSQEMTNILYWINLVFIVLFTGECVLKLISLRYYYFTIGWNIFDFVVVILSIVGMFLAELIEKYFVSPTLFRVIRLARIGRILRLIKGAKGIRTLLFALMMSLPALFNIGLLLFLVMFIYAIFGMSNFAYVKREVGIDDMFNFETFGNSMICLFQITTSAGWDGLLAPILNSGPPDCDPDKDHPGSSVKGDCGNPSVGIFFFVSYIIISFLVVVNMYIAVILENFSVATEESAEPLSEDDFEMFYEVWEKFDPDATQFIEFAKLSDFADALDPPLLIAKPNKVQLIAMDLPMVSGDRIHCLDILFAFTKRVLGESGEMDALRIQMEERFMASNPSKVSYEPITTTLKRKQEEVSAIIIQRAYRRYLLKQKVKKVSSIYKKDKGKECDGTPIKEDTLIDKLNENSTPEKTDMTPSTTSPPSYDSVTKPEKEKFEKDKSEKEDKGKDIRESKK
From the text: (§1) The cDNA genes encoding rat Nav1.4 and human Nav1.7 were subcloned into vectors pRGB4 and pcDNA3.1-mod, respectively. Mutations of rNav1.4 (N655D, Q657E, and N655D/Q657E) and hNav1.7 (D816N, E818Q, and D816N/E818Q) were constructed using the Gene Tailor Site-Directed Mutagenesis system (Invitrogen, Carlsbad, CA, United States), according to the manufacturer’s instructions. Nav1.2–Nav1.7 and mutant plasmids together with eGFP were transiently transfected into HEK293T cells while Nav1.8 together with eGFP was transiently transfected into ND7/23 cells by Lipofectamine 2000 (Invitrogen, Carlsbad, CA, United States). Additionally, plasmids β1- and β2-eGFP encoding the human β1 and β2 subunits, respectively, were co-transfected with those encoding WT Nav1.7 and Nav1.7 mutations in HEK293T cells. […] Cells with green fluorescent protein fluorescence were selected for whole-cell patch-clamp recordings 24 h after transfection.
(§2) Whole-cell patch-clamp recordings were performed at room temperature (20–25°C) using an EPC 10 USB Patch Clamp Amplifier (HEKA, Elektronik, Lambrecht, Germany). […] Data was analyzed by software Igo Pro 6.10A (WaveMetrics, Lake Oswego, OR, United States), SigmaPlot 10.0 (Sigma-Aldrich, St. Louis, MO, United States), OriginPro 8 (OriginLab Corp., Northampton, MA, United States), and GraphPad Prism 5 (GraphPad Software, San Diego, CA, United States). […]

[2] = molecular target: T2, Nav1.3 (Homo sapiens, UniProt Q9NY46); test: Whole-cell patch-clamp, Nav1.3 in HEK293T cells; details: mean ± SEM
T2 construct: expressed in transfected cells; host or cells: HEK293T
From the text: as §1, §2

[3] = molecular target: T3, Nav1.6 (Homo sapiens, UniProt Q9UQD0); test: Whole-cell patch-clamp, Nav1.6 in HEK293T cells; details: mean ± SEM
T3 construct: expressed in transfected cells; host or cells: HEK293T
T3 sequence (Q9UQD0 whole entry): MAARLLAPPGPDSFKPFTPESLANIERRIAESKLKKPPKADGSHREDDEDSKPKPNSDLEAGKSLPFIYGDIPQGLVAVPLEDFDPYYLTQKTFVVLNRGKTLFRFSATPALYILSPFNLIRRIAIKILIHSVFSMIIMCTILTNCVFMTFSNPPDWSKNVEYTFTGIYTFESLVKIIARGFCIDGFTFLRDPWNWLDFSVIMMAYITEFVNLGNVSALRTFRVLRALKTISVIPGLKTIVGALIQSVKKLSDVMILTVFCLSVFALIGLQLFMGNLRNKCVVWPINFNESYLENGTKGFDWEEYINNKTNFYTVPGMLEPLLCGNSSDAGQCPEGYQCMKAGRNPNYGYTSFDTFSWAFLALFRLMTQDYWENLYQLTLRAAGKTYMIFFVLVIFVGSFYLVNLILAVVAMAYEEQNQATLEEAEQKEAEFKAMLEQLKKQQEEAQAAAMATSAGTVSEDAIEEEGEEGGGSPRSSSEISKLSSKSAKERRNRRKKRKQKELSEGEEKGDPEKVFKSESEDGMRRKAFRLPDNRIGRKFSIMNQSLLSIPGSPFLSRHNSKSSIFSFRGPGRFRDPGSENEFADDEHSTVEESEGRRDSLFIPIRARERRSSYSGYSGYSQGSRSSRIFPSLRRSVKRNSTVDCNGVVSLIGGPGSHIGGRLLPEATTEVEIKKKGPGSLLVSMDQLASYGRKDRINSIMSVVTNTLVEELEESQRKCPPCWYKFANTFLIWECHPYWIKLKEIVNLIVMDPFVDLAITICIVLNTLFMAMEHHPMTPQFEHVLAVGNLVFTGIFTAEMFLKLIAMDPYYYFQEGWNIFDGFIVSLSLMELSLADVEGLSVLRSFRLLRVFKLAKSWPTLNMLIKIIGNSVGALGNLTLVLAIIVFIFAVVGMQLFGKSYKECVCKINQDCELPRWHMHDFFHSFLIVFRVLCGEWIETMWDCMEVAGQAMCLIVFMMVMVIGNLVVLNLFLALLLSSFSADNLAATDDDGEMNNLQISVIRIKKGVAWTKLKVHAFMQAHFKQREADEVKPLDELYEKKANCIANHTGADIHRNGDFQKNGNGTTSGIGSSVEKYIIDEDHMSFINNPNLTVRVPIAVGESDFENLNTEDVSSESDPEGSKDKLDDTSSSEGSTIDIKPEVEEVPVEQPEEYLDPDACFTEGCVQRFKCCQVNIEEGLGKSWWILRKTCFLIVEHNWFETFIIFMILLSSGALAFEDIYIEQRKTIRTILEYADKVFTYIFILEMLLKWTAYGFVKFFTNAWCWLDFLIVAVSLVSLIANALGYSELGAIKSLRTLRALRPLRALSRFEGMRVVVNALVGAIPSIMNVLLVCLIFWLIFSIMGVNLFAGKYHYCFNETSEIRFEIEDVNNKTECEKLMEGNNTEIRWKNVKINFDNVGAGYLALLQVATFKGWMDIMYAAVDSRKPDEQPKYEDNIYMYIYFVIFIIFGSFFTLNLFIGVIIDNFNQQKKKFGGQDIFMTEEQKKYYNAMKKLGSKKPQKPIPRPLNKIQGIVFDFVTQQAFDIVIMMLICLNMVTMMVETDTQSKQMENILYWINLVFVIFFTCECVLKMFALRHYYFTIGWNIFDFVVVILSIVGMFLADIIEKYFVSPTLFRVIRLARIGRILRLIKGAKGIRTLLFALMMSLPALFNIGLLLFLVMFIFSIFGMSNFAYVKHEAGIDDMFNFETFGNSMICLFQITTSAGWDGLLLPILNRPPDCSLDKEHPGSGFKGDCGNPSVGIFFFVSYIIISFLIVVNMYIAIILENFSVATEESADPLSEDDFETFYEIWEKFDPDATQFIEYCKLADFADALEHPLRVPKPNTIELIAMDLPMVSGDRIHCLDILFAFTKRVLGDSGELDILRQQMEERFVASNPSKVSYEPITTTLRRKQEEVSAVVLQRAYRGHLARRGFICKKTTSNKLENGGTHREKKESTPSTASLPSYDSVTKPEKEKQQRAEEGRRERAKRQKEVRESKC
From the text: as §1, §2

[4] = molecular target: T4, Nav1.7 (Homo sapiens, UniProt Q15858); test: Steady-state fast inactivation and fast inactivation time constants of Nav1.7; details: 0.2 μM
T4 construct: expressed in transfected cells; host or cells: HEK293T
From the text: as §1, with “States).” for “States). Additionally, plasmids β1- and β2-eGFP encoding the human β1 and β2 subunits, respectively, were co-transfected with those encoding WT Nav1.7 and Nav1.7 mutations in HEK293T cells.”
as §2
Fast inactivation time constants were calculated by fitting current decay traces with a single exponential function using the I–V protocol described above. […]

[5] = 1 μM, 50 ms to −10 mV from −100 mV
[6] = whole-cell patch-clamp, n = 4–7 cells per data point

What does the source list for `CC(C)C[C@H](NC(=O)[C@H](CC(=O)O)NC(=O)[C@H](Cc1ccc(O)cc1)NC(=O)[C@H](CCCCN)NC(=O)[C@@H]1CSSC[C@@H]2NC(=O)[C@H](CCCCN)NC(=O)[C@H](CC(=O)O)NC(=O)[C@H](CC(N)=O)NC(=O)[C@H](CO)NC(=O)[C@@H]3CCCN3C(=O)[C@H](CC(N)=O)NC(=O)[C@@H]3CSSC[C@H](NC(=O)[C@H](C(C)C)NC(=O)[C@H](CC(C)C)NC(=O)[C@H](CO)NC(=O)[C@H](CO)NC(=O)[C@H](CO)NC(=O)[C@H](CCCCN)NC(=O)[C@H](CSSC[C@H](NC(=O)[C@H](C)N)C(=O)N[C@@H](CC(C)C)C(=O)NCC(=O)N[C@@H](Cc4ccccc4)C(=O)NCC(=O)N[C@@H](CCC(=O)O)C(=O)N[C@@H](CCCCN)C(=O)N3)NC2=O)C(=O)N[C@@H](CO)C(=O)N[C@@H](CCC(N)=O)C(=O)N[C@@H](CCCCN)C(=O)N[C@@H](Cc2c[nH]cn2)C(=O)N[C@@H](CCCCN)C(=O)N[C@@H](Cc2c[nH]c3ccccc23)C(=O)N1)C(=O)O` [Ca2a] (H-ACLGFGEKCNPSNDKCCKSSSLVCSQKHKWCKYDL-OH; disulfide 2-17, 9-24, 16-31 (inferred); N-terminus and C-terminus assumed)?
decrease of Nav1.2 current amplitude [1, 5]: 82.6 ± 2.7%; IC50 [1, 6]: 216 ± 9.1 nM; decrease of Nav1.3 current amplitude [2, 5]: 67.7 ± 3.8%; IC50 [2, 6]: 491.3 ± 3.9 nM; decrease of Nav1.6 current amplitude [3, 5]: 78.7 ± 2.9%; IC50 [3, 6]: 314 ± 6.3 nM; fast inactivation time constants of Nav1.7 ([4]; between −15 and 10 mV, P > 0.05, two-way ANOVA, n = 6–11 cells): did not alter the inactivation time constants; half-inactivation voltage of Nav1.7 (steady-state fast inactivation) ([4]; control −70.2 ± 0.8 mV, 500-ms prepulse, mean ± SEM, n = 10): −70.7 ± 1.1 mV
